# Experiments:
# [1] = tested on: oxazolone-induced atopic contact dermatitis; assay: Atopic contact dermatitis, prophylactic protocol (MPM); type: in vivo, CD-1 mice; conditions: Protection against atopic contact dermatitis (day 9); Controls 0.45
# Description: (§1) A murine model of atopic contact dermatitis induced with oxazolone in mice was used to determine the anti-inflammatory effect of the whey fermented with Lactobacillus kefiranofaciens […]. This model of inflammation has proven to be a sensitive and useful tool to determine efficacy and potency of several anti-inflammatory and immunosuppressive drugs used in dermatological disorders like psoriasis for example. Drugs like glucocorticoids are commonly used to relieve skin and joint inflammation. Whey fermented with […] administered orally either in a prophylactic (Table 24) or therapeutic fashion (Table 23) reduced the inflammation as shown with a reduction of around 30% of ear and thickness in both cases. […] The ear thickness of the mice was measured every day. The prophylactic anti-inflammatory potential of MPM (patent PCT/CA2002/01988) was evaluated firstly by the administration of MPM, 7 days prior to sensitization. […] Dermatitis was induced as described previously and ear thickness was measured every day. The therapeutic anti-inflammatory potential of MPM was evaluated by the administration of MPM only after the first challenge. […] The mouse atopic contact dermatitis was done as described previously and ear thickness was measured every day. The mice's weight was measured twice a week.
# [2] = tested on: oxazolone-induced atopic contact dermatitis; assay: Atopic contact dermatitis, therapeutic protocol (R2C2); type: in vivo, mice
# Description: A murine model of atopic contact dermatitis induced with oxazolone in mice was used to determine the anti-inflammatory effect of the whey fermented with Lactobacillus kefiranofaciens […]. This model of inflammation has proven to be a sensitive and useful tool to determine efficacy and potency of several anti-inflammatory and immunosuppressive drugs used in dermatological disorders like psoriasis for example. Drugs like glucocorticoids are commonly used to relieve skin and joint inflammation. Whey fermented with […] administered orally either in a prophylactic (Table 24) or therapeutic fashion (Table 23) reduced the inflammation as shown with a reduction of around 30% of ear and thickness in both cases. In more details, the murine model of atopic contact dermatitis was based on those firstly described by Garrigue et al. (Contact Dermatitis., 30(4):[…], 1994) and modified as follows: the CD-1 mice's abdomen were removed of hair and the sensitization phase was done with the application of 100 microliters of oxazolone 5% in acetone on the abdomen (Sigma-Aldrich, Oakville, On). After 4 days, the elicitation phase (first challenge) was done with application of 50 microliters of oxazolone 5% in acetone on the right ear (25 microliters each side of the ear). The second challenge was done 7 days after the first challenge with the same procedure. The ear thickness of the mice was measured every day. The therapeutic anti-inflammatory potential of […] was evaluated in an animal model of atopic contact dermatitis by feeding the bacterial suspension after the first challenge. The protective effect of […] was compared to that of hydrocortisone, because of its well-known anti-inflammatory effects on dermatitis.
# [3] = tested on: oxazolone-induced atopic contact dermatitis; assay: Atopic contact dermatitis, therapeutic protocol (MPM); type: in vivo, CD-1 mice; conditions: Treatment of atopic contact dermatitis (day 17); Controls 0.55
# Description: as §1
# [4] = tested on: DSS-induced intestinal inflammation; assay: Effect of live, pasteurized or irradiated bacteria on DSS intestinal inflammation; type: in vivo, C57BL/6 mice
# Protocol: C57BL/6 mice were treated by gavage (p.o.) with 10^8 cfu/ml of different L. kefiranofaciens strains once per day for the duration of the experiment. Animals received the strains R2C2 or BioSP as live, pasteurized or irradiated bacteria. Intestinal inflammation was induced by the addition of DSS (2.5%) to the drinking water for 8 days and then replaced with fresh water for 8 days to evaluate the rapidity of recovery process from inflammation for the different treatment groups. The level and progression of inflammation was evaluated through measurements of weight variation and combined scores of diarrhea and occult blood. Colon length and myeloperoxidase (MPO) activity in the colon were also evaluated at the end of the experiment.
# [5] = tested on: systolic blood pressure of SHR rats; assay: Anti-hypertensive potential in SHR rats (tail-cuff SBP); type: in vivo, SHR female rats
# Protocol: Anti-hypertensive potential of whey fermented with […] (MPM) was evaluated by using SHR female rats (6 weeks old). 12 rats were randomized according to their weight in each treatment group. They were housed under specific pathogen-free conditions and maintained in a 12 hour-light/dark cycle. All animals consumed standard diet and received water ad libitum. Groups were forced-fed daily either 1 mL of water (placebo group), MPM (5 mL/kg) or Enalapril-malate (10 mg/kg), because of its well-known hypotensive effects. Systolic blood pressure (SBP) was measured weekly by the tail-cuff method with the automated RTBP2000 Tail Blood Pressure system (Kent Scientific, Torrington, Conn., USA). Data collections were made weekly and an average of 3 measurements was taken as initial mean SBP. Data was acquired and analysed with Biopac Student Lab Pro® software version 3.6.1 (Biopac System, Goleta, Calif., USA). […] A steady decrease of the SBP was observed every week with a maximum change of at least 25% at week 4 for the animals forced-fed with MPM.
# [6] = tested on: diet-induced hyperlipidemia and weight gain; assay: Model of hypertriglyceridemia and obesity (fructose 10% in drinking water); type: in vivo, Wistar rats
# Protocol: The whey fermented with L. kefiranofaciens […] was tested for its capacity to regulate weight gain and blood lipid levels in a diet-induced rat model of hyperlipidemia. This protocol allows a comparison to niacin (vitB3) in regulating diet-induced hyperlipidemia in rats. […] The hypo-lipidemic effects of the whey fermented with L. kefiranofaciens […] during the fructose treatment period were evaluated. Blood samples are collected before the start of fructose treatment, and once a week for 4 weeks during the induction of hyperlipidemia. Serum levels of triglycerides were measured.
# [7] = tested on: poloxamer 407 induced hyperlipidemia; assay: Anti-triglyceridemia potential, poloxamer 407 rats (Example 6); type: in vivo, female Wistar rats
# Protocol: For the experiment, female Wistar rats, 7 weeks old, weighing 125-150 g. were purchased from Charles River Canada. Rats were randomized into 4 different groups, each composed of at least 6 animals. […] They were housed under specific pathogen-free conditions and maintained in a […] light/dark cycle. All animals consumed standard diet and received water ad libitum. MPM was in a lyophilized form and prepared daily by adding 80% of water and mixed to create back a yoghurt-like product. The bacterial strain Lactobacillus […] was routinely cultured in MRS broth (BD Biosciences, Mississauga, ON, Canada) at 37° C. for a period of 24 h. Bacteria were then pelleted by centrifugation at 4000 rpm for 8 minutes and re-suspended at a concentration of 10^9 cells/mL in sterile PBS (Invitrogen). Niacin was dissolved in water in order for the rats to receive a dose of 100 mg of treatment per kg. […] The poloxamer 407 solution for intraperitoneal (i.p.) injection was prepared by combining the agent with sterile water and refrigerating overnight to facilitate dissolution of the polymer by the cold method of incorporation. […] Approximately 1 mL of blood was collected from the jugular vein in 3 mL syringes and immediately transferred in lithium-heparinized plastic tubes (Sarstedt, Montreal, QC, Canada). Tubes were lightly shaken for 10 seconds, and then centrifuged to allow separation of the plasma. Plasma samples were collected in clean 1.5 mL eppendorf and immediately frozen at -80° C. until the time of analysis. For blood collection, each animal was anesthetized using isoflurane (AErrane, Baxter Corporation, Deerfield, Ill., USA). […] Animals were sacrificed after the last blood collection by the CO2 asphyxia method. […] Samples from all experimental groups were analyzed for total cholesterol and triglycerides. All analysis were performed in an independent laboratory (Laboratoire medical Biron, 4105-[…] Blvd, Brossard, Québec, Canada, J4Y 2P4), ISO 9002 certified, offering a reliable plasma lipids quantification service.
# [8] = tested on: poloxamer 407 induced hyperlipidemia; assay: Poloxamer 407 rat model of hyperlipidemia (strains); type: in vivo, Wistar rats
# Protocol: (§2) The different bacterial strains were tested for their capacity to regulate blood lipid levels in a rat model of hyperlipidemia. […] Wistar rats injected i.p. with poloxamer 407 rapidly develop severe but transient hyperlipidemia. […] The hypo-lipidemic effect of L. kefiranofaciens strains is evaluated in groups of rats pre-treated orally for 7 days before injection of poloxamer. Blood lipids were measured before injection and at 24 and 72 hours following induction of hyperlipidemia. Plasma levels of triglycerides, and cholesterol (LDL) were evaluated.
# Group 1: 4 rats, gavage saline Group 2: 4 rats, gavage niacin (100 mg/kg) Group 3: 4 rats, gavage R2C2 (1×10^8 cfu/ml) Group 4: 4 rats, gavage INIX (1×10^8 cfu/ml) Group 5: 4 rats, gavage BioSP (1×10^8 cfu/ml) Group 6: 4 rats, gavage K2 (1×10^8 cfu/ml)
# [9] = tested on: visceral fat in Spontaneous Hypertensive Rat; assay: Weight and fat management, SHR model (visceral fat); type: in vivo, SHR rats; conditions: once a day for 56 days, saline 100
# Protocol: The whey fermented with L. kefiranofaciens R2C2 was tested for its capacity to regulate fat distribution as well as weight gain in the Spontaneous Hypertensive Rat model and in ovariectomized rats. The SHR model was used as previously described but used to monitor the levels of visceral fat accumulating in the belly following. The animals were fed with 1 ml of whey fermented with L. kefiranofaciens R2C2 (20% solid) once a day for 56 days (P.O. q1×56)
# Group 1: 12 rats, gavage saline Group 2: 12 rats, gavage niacine (100 mg/kg) Group 3: 12 rats, gavage whey fermented with L. kefiranofaciens R2C2 (1 ml per gavage)
# [10] = tested on: poloxamer 407 induced hyperlipidemia; assay: Model of hyperlipidemia, poloxamer 407 (Example 8a); type: in vivo, Wistar rats
# Protocol: as §2, with “whey fermented with L. kefiranofaciens R2C2 was” for “different bacterial strains were”, “triglycerides, cholesterol, HDL, LDL” for “triglycerides,”, “glucose” for “cholesterol (LDL)”
# Group 1: 4 rats, gavage saline Group 2: 4 rats, gavage niacin (100 mg/kg) Group 3: 4 rats, gavage whey fermented with L. kefiranofaciens R2C2 (1 ml per gavage)
# [11] = plasma, before poloxamer, saline 1.55
smiles,measurement,setting,value
"C[C@]12CCC(=O)C=C1CC[C@@H]1[C@@H]2[C@@H](O)C[C@@]2(C)[C@H]1CC[C@]2(O)C(=O)CO [Hydrocortisone, hydrocortisone]",Ear thickness (mm),[1],0.30 mm
same,ear thickness (mm),"[2]; Day 15, Controls 0.26",0.18 mm
same,ear thickness (mm),"[2]; Day 17, Controls 0.39",0.27 mm
same,ear thickness (mm),"[2]; Day 22, Controls 0.34",0.15 mm
same,Ear thickness (mm),[3],0.29 mm
Nc1ccc(O)c(C(=O)O)c1 [5-ASA],Weight loss (%) associated with 8 days of DSS exposure,"[4]; Day 5, DSS+saline −1.83",−3.21%
same,Combined occult blood and diarrhea scores (scale of 8),"[4]; Day 5 of DSS, DSS+saline 2.25",1.75
same,Weight loss (%) associated with 8 days of DSS exposure,"[4]; Day 6, DSS+saline −5.23",−3.64%
same,Combined occult blood and diarrhea scores (scale of 8),"[4]; Day 6 of DSS, DSS+saline 4.50",3.75
same,Weight loss (%) associated with 8 days of DSS exposure,"[4]; Day 7, DSS+saline −8.79",−5.90%
same,Combined occult blood and diarrhea scores (scale of 8),"[4]; Day 7 of DSS, DSS+saline 6.50",4.25
same,Weight loss (%) associated with 8 days of DSS exposure,"[4]; Day 8, DSS+saline −13.5",−8.07%
same,Combined occult blood and diarrhea scores (scale of 8),"[4]; Day 8 of DSS, DSS+saline 6.50",5.50
same,MPO activity (U/g of tissue),"[4]; colon, post-mortem, 8 days DSS and 8 days of recovery, no DSS 0.056, DSS+saline 0.226",0.043 U/g of tissue
same,Protective effect on DSS inflammation,"[4]; live, pasteurized or irradiated bacteria, 5-ASA comparator",comparable protective effects
"CCOC(=O)[C@H](CCc1ccccc1)N[C@@H](C)C(=O)N1CCC[C@H]1C(=O)O [Enalapril, Enalapril-malate]",Systolic blood pressure (mm Hg),"[5]; Week 0, Controls 185",184 mm Hg
same,Systolic blood pressure (mm Hg),"[5]; Week 1, Controls 181",165 mm Hg
same,Systolic blood pressure (mm Hg),"[5]; Week 2, Controls 184",156 mm Hg
same,Systolic blood pressure (mm Hg),"[5]; Week 3, Controls 183",154 mm Hg
same,Systolic blood pressure (mm Hg),"[5]; Week 4, Controls 187",154 mm Hg
"O=C(O)c1cccnc1 [Niacin, niacin]","Levels of triglyceride, % relative to saline on day 0","[6]; Day 0, saline 100",100%
same,"Levels of triglyceride, % over saline group","[6]; Day 7 of fructose, saline 260",150%
same,"Levels of triglyceride, % over saline group","[6]; Day 21 of fructose, saline 270",160%
same,CH levels (72 hours post induction of hyperlipidemia) (%),"[7]; cholesterol, Controls 100",33%
same,Triglyceride levels (7-day treatment),"[7]; plasma, before poloxamer 407, Controls 1.83",1.00 mmol/L
same,Triglyceride levels (72 hours post induction of hyperlipidemia),"[7]; plasma, Controls 95.42",66.96 mmol/L
same,Plasma triglycerides after pre-treatment of 7 days,[8]; before poloxamer,plasma triglycerides were reduced
same,Triglycerides (mmol/L) after 7 days of treatment,[8]; [11],0.97 mmol/L
same,Triglycerides (mmol/L) 72 h post-induction of hyperlipidemia,"[8]; plasma, saline 95.42",69.96 mmol/L
same,Plasma triglycerides 72 hours after induction of hyperlipidemia,"[8]; rat, in vivo",most important reduction
same,% of animals with visceral fat,[9],70%
same,Triglycerides (mmol/L) after 7 days of treatment,[10]; [11],0.97 mmol/L
same,Triglycerides (mmol/L) 72 h post-induction of hyperlipidemia,"[10]; plasma, saline 97.72",69.96 mmol/L
same,Plasma triglycerides after pre-treatment of 7 days,"[10]; rat, in vivo",plasma triglycerides were reduced

# From patent US20140193383A1, “USE OF LACTOBACILLUS KEFIRANOFACIENS AS A PROBIOTIC AND A SYNBIOTIC” (Technologies Biolactis Inc., priority 2005, published 2014)
